Laboratory results: patent US20260109721A1, “IONIZABLE CATIONIC LIPIDS INCORPORATING SILICON: SYNTHESIS AND LNP FORMULATION” (priority 2023, published 2026)

Legend:
HeLa cells [1] = test: Transfection efficiency with GFP mRNA (Method B); format: cell-based; conditions: 24 h, GFP fluorescence
Description: (§1) The synthesized lipids were tested in term of in vitro transfection efficacy and toxicity on HeLa cells. In order to perform the mentioned biological tests, appropriate LNPs had to be formulated from the synthesized lipids. The formulation technique was different in Method A and B. The particle size, polydispersity index (PDI) and zeta potential of resulting LNPs were determined by means of Dynamic Light Scattering technique (DLS). Prior to biological testing the encapsulation efficiency (EE) of the loaded LNPs was determined by using RiboGreen RNA assay. In case of Method A Luc mRNA while in case of Method B GFP mRNA was transfected into the cells. In parallel with the transfection experiments, toxicity of the investigated LNPs was determined, in case of Method A resazurin assay while in case of Method B MTT assay was used. Additionally, the toxicity of the lipids was investigated on HepG2 cells and IC50 values were determined.
(§2) In 1.5 mL eppendorf: • a) Place 2.9 uL of 0.33 ug/uL mRNA solution into Eppendorf tube • b) Add 1.94 μL of supplied ethanolic solution of tested lipid and immediately mix by working pipette up-and-down several times (work the solution up and down several times before transferring to saturate pipette tip with ethanol vapors) • c) Incubate for 15 minutes. • d) Add 536 μL of MEM. Mix the solution by vortexing. • e) Incubate for 30 minutes.
• MEM (Sigma, cat #M5650-500 mL) • Fetal Bovine Serum, FBS (Sigma, cat #F7524-500 mL) • Solutions of the formulations (see above) • Dilutor: 10 mL MEM+0,036 mL ethanol • Phosphate buffered saline, PBS
• 1. Fill the edge wells of a 96-well plate with 100 μL media. • 2. Plate 10,000 HeLa cells per well in 96 well plate. […] Total 60 wells should be seeded. Incubate in MEM+10% FBS at 37° C. in a humidified atmosphere with 5% CO2 for 24 h. • 3. Examine under the microscope. Confluency must be at or nearly 80%. • 4. Gently remove the media (aspirate). Place 50 μL of the following formulations: • a) 6 wells with dilutor—negative control • b) 6 wells with Lipofectamine-50—positive control. • c) 6 wells with Lipofectamine-6—secondary positive control • d) 6 wells per formulations—test samples. • 5. Incubate plate for 1 hours at 37° C. • 6. Add 50 μL of MEM+20% FBS (which will become 10% upon dilution). • 7. Place plates into the incubator at 37° C. in a humidified atmosphere with 5% CO2 for 23 h (total 24 hours of incubation). • 8. After 24 h, aspirate the media without disturbing the cells. Gently wash cells with 100 μL of warm PBS. Aspirate PBS. • 9. Add 100 μL of fresh PBS into washed cells and read GFP fluorescence on the plate reader. • 10. This can be followed with viability assessment with the MTT assay. Cell Viability Assessment with MTT Assay (Method B)

HeLa cells [2] = test: Cell viability assessment with MTT assay (Method B); format: cell-based; conditions: 24 h
Description: as §1
• MEM (Sigma, cat #M5650-500 mL) • Fetal Bovine Serum, FBS (Sigma, cat #F7524-500 mL) • Thiazolyl Blue Tetrazolium Bromide, MTT (TCI Chemicals, cat #D0801-5G) • Solutions of the formulations (see “Preparation of GFP mRNA loaded LNP” protocol) • Dilutor: 10 mL MEM+0,036 mL ethanol • Phosphate buffered saline, PBS
• 1. Plate 10,000 HeLa cells per well in 96 well plate. […] Total 60 wells should be seeded. Incubate in MEM+10% FBS at 37° C. in a humidified atmosphere with 5% CO2 for 24 h. • 2. Examine under the microscope. Confluency must be at or nearly 80%. • 3. Gently remove the media (aspirate). Place 50 μL of the following formulations: • a) 6 wells with dilutor—negative control • b) 6 wells with Lipofectamine-50—positive control. • c) 6 wells with Lipofectamine-6—secondary positive control • d) 6 wells per formulations—test samples. • 4. Incubate plate for 1 hours at 37° C. • 5. Add 50 μL of MEM+20% FBS (which will become 10% upon dilution). • 6. […] Measure the absorbance of each well at 570 nm using a microplate reader. Measure the absorbance at a reference wavelength of 650 nm to subtract background absorbance. • 11. […]

[3] = LNP size and size distribution by Dynamic Light Scattering (Method B); format: physicochemical; conditions: DLS; for Size (nm): Z-average
Description: • 0.33 ug/uL mRNA solution in DEPC-treated water (RiboPro, Off-The-Shelf mRNA; eGFP with Cap 1) • 0.04 ug/uL mRNA solution in DEPC-treated water (RiboPro, Off-The-Shelf mRNA; eGFP with Cap 1)
as §2
• a) Place 45 μL Lipofectamine-50 solution into 1.5 mL sterile Eppendorf tube. • b) Add 315 μL of MEM. Vortex. • c) Incubate 15 min. Size and Size Distribution Measurements with Dynamic Light Scattering • 1. Transfer 100 μL of freshly prepared LNP formulation in DLS micro cuvette. • 2. Place the formulation into Zetasizer pre-heated to 37 C. • 3. Equilibrate the sample for 5 minutes. • 4. Perform the size measurement in triplicate (settings: position and gain auto). • 5. For QC examine correlation curve to have no disturbances. Report Z-average and PDI based on cumulants fit. Transfection Efficiency with GFP mRNA (Method B)

[4] = Apparent pKa in LNPs by TNS titration; format: physicochemical; conditions: lipid nanoparticles (LNPs)
Description: In the case of some lipids, the apparent pKa in LNPs was determined by using TNS titration based on the method described: Angew Chem Int Ed Engl. 2012, 51 (34), 8529-8533, doi: 10.1002/anie.201203263).

Row | SMILES | Transfection 89 ng mRNA/well (HeLa cells [1]) | Cell Viability % (HeLa cells [2]) | PDI [3] | Size (nm) [3] | pKa [4]
1 | CCCCCCCCC(CCCCCC)C(=O)OCCCCCCN(CCCCO)CCCCCCOC(=O)C(CCCCCC)CCCCCCCC (stereo not shown) [ALC-0315, reference compound] | 15892.1 | – | – | – | –
2 | CCCCC/C=C\C/C=C\CCCCCCCCOC(CCCCCCC/C=C\C/C=C\CCCCC)O[Si](C)(C)OCCCCCCN(CCO)CCO (stereo not shown) [Example 48, (23Z,26Z)-13-((8Z,11Z)-heptadeca-8,11-dien-1-yl)-3-(2-hydroxyethyl)-11,11-dimethyl-10,12,14-trioxa-3-aza-11-siladotriaconta-23,26-dien-1-ol] | 93448.3 | 51.5% | 0.128 | 180 nm | 7.73
3 | CCCCC/C=C\C/C=C\CCCCCCCCOC(CCCCCCC/C=C\C/C=C\CCCCC)O[Si](C)(C)OCCCCCCN(C)CCO (stereo not shown) [Example 56, (23Z,26Z)-13-((8Z,11Z)-heptadeca-8,11-dien-1-yl)-3,11,11-trimethyl-10,12,14-trioxa-3-aza-11-siladotriaconta-23,26-dien-1-ol] | 78375.2 | 40.2% | 0.092 | 185 nm | 7.21
4 | CCCCC/C=C\C/C=C\CCCCCCCCOC(CCCCCCC/C=C\C/C=C\CCCCC)O[Si](C)(C)OCCCCCCN1CCN(CCO)CC1 (stereo not shown) [Example 58, 2-(4-((20Z,23Z)-10-((8Z,11Z)-heptadeca-8,11-dien-1-yl)-8,8-dimethyl-7,9,11-trioxa-8-silanonacosa-20,23-dien-1-yl)piperazin-1-yl)ethan-1-ol] | 50019.2 | 52.1% | – | – | –
